Source: ChEMBL document CHEMBL1127784, “Design and synthesis of peptidomimetic inhibitors of HIV-1 protease and renin. Evidence for improved transport” (J Med Chem, 1994)

Key:
Renin = target: T1, Renin (Homo sapiens, UniProt P00797); assay: In vitro inhibitory concentration against renin
T1 sequence (P00797 whole entry): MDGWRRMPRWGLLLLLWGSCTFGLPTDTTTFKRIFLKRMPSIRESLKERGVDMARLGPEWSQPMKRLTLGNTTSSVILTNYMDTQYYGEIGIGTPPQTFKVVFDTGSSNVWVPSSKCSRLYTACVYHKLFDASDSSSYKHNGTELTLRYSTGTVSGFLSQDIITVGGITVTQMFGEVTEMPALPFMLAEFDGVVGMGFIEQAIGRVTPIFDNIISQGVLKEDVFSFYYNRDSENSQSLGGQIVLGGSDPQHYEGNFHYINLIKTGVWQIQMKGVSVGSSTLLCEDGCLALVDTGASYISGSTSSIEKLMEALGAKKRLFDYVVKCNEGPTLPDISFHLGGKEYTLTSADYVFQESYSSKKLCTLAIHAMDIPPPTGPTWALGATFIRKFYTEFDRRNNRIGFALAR

[1] = target: Human immunodeficiency virus type 1 protease (Human immunodeficiency virus 1) (UniProt Q72874); assay: Tested for the relative potency against HIV-1 protease in the cellular antiviral assay
[2] = target: Human immunodeficiency virus type 1 protease (Human immunodeficiency virus 1, UniProt Q72874); assay: In vitro inhibitory concentration against HIV-1 protease

| IC50 (Renin) [nM] | IC95 [1] [nM] | IC50 [2] [nM] | SMILES |
| --- | --- | --- | --- |
|  | 6000 |  | CC(C)C[C@H](NC(=O)[C@H](Cc1ccccc1)C[C@H](O)[C@H](Cc1ccccc1)NC(=O)OC(C)(C)C)C(=O)N[C@@H](Cc1ccccc1)C(N)=O |
|  | 1500 | 10 | CC(C)C[C@@]1(C2=C(O)[C@](Cc3ccccc3)(C[C@H](O)[C@H](Cc3ccccc3)NC(=O)OC(C)(C)C)N=C2)N=CC([C@@H](Cc2ccccc2)C(N)=O)=C1O |
|  | 800 | 1.3 | CC(C)C[C@@]1(C2=C(O)[C@](Cc3ccccc3)(C[C@H](O)[C@H](Cc3ccccc3)NC(=O)O[C@@H]3CCOC3)N=C2)N=CC([C@@H](Cc2ccccc2)C(N)=O)=C1O |

Further lines, the molecule ahead of its results:

| SMILES | IC50 (Renin) [nM] | IC95 [1] [nM] | IC50 [2] [nM] |
| --- | --- | --- | --- |
| CC(C)C[C@H](O)[C@H](O)[C@H](CC1CCCCC1)C1=C(O)[C@](CC(C)C)(C2=C(O)[C@@](CC(=O)N3CCOCC3)(Cc3ccccc3)N=C2)N=C1 | 18000 |  |  |
| CC(C)C[C@@H](C(=O)N[C@@H](CC1CCCCC1)[C@@H](O)[C@@H](O)CC(C)C)C1=C(O)[C@@](CC(=O)N2CCOCC2)(Cc2ccccc2)N=C1 | 600 |  |  |
